Measurements reported in patent publication US20230159527A1, “COMPOUNDS AS BCL-2 INHIBITORS” (Fochon Pharmaceuticals, Ltd., priority 2020, published 2023).

Assays:
Assay type in all cases: cell-based
RS4;11 cells = assay: Cell proliferation assay, RS4;11 cells (MTS, 72 h); conditions: Homo sapiens, RS4;11 cell proliferation
Procedure: MTS testing kit was purchased from Promega. The RPMI-1640, Fetal bovine serum and Penicillin-Streptomycin were purchased from Gibco. Dimethyl sulfoxide (DMSO) was purchased from Sigma.
To investigate whether a compound is able to inhibit the activity of Bcl-2 in cells, a mechanism-based assay using RS4;11 (ATCC® CRL-1873™) cell was developed. In this assay, inhibition of Bcl-2 was detected by the inhibition of RS4;11 cells proliferation. RS4;11 cells were cultured in culture flasks to 40-80% confluence in RPMI-1640 plus 10% fetal bovine serum. Cells were collected and plated onto 96-well plates at desired cell density (30000 cells/well). Plates were incubated overnight at 37° C., with 5% CO2 to adhere. Compounds were added to the plates, and the final compound concentrations were 10000, 3333, 1111, […], 41, 14, 4.6 and 1.5 nM. Plates plated with RS4;11 cells were placed at 37° C., with 5% CO2 for 72 h. 20 μl MTS/100 μl medium mixture solution were added to each well and incubate the plates for exactly 2 hours. The reaction was stopped by adding 25 μl 10% SDS per well. Measure absorbance at 490 nm and 650 nm (reference wavelength). IC50 was calculated using GraphPad Prism 5.0.

Toledo cells = assay: Cell proliferation assay, Toledo cells (MTS, 72 h); conditions: Homo sapiens, Toledo cells, MTS, read-out: Toledo IC50
How it was run: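 Toledo cells (30000/well, RPMI-1640 with 10% FBS) were preincubated for 4 h. They were then exposed to nine compound concentrations from 10000 to 1.5 nM for 72 h at 37 °C, 5% CO2. MTS was added for 2 h and absorbance read at 490 nm to give IC50.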

RS4;11-BCL-2 G101V cells = assay: Cell proliferation assay, engineered RS4;11 cells stably overexpressing BCL-2 G101V (MTS, 168 h); conditions: Homo sapiens, RS4-11, 168 h, read-out: RS4, 11 BCL2- G101V
How it was run: (§1)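 Proliferation read-out: MTS for exactly 2 h, then absorbance at 490 nm, with IC50 derived from the fit. Before this, engineered RS4;11 lines (BCL-2 G101V, F104L; 5000 cells/well) were exposed 168 h at 37 °C to serially diluted compound, final 1.4–10000 nM.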

RS4;11-BCL-2 F104L cells = assay: Cell proliferation assay, engineered RS4;11 cells stably overexpressing BCL-2 F104L (MTS, 168 h); conditions: Homo sapiens, read-out: RS4, 11 BCL2-F104L
How it was run: as §1

IC50 (RS4;11 cells)	IC50 (RS4;11-BCL-2 G101V cells)	IC50 (RS4;11-BCL-2 F104L cells)	SMILES	IC50 (Toledo cells)
≤ 1 nM			O=C(NS(=O)(=O)c1cnc(NCC2CCSCC2)c([N+](=O)[O-])c1)c1ccc(N2CCC3(CC2)CC(N2CCOC[C@H]2c2ccccc2C2CC2)C3)cc1Oc1cnc2[nH]ccc2c1 (single isomer, unassigned) [Example A-98, (R or S)-2-((1H-pyrrolo[2,3-b]pyridin-5-yl)oxy)-4-(2-(3-(2-cyclopropyl-phenyl)morpholino)-7-azaspiro[3.5]nonan-7-yl)-N-((5-nitro-6-(((tetra-hydro-2H-thiopyran-4-yl)methyl)amino)pyridin-3-yl)sulfonyl) benzamide]	
≤ 1 nM			CC1(O)CCC(CNc2ncc(S(=O)(=O)NC(=O)c3ccc(N4CCC5(CC4)CC(N4CCC[C@H]4c4ccccc4C4CC4)C5)cc3Oc3cnc4[nH]ccc4c3)cc2[N+](=O)[O-])CC1 (stereo partly drawn) [Example A-1a, (S)-2-((1H-pyrrolo[2,3-b]pyridin-5-yl)oxy)-4-(2-(2-(2-cyclopropylphenyl)pyrrolidin-1-yl)-7-azaspiro[3.5]nonan-7-yl)-N-((6-(((4-hydroxy-4-methylcyclohexyl)methyl)amino)-5-nitropyridin-3-yl)sulfonyl)benzamide]	
≤ 1 nM			CS(C)(=O)=NC1CCC(CNc2ncc(S(=O)(=O)NC(=O)c3ccc(N4CCC5(CC4)CC(N4CCC[C@@H]4c4ccccc4C4CC4)C5)cc3Oc3cnc4[nH]ccc4c3)cc2[N+](=O)[O-])CC1 (single isomer, unassigned) [Example A-9b, (R or S)-2-((1H-pyrrolo[2,3-b]pyridin-5-yl)oxy)-4-(2-(2-(2-cyclopropyl-phenyl)pyrrolidin-1-yl)-7-azaspiro [3.5]nonan-7-yl)-N-((6-(((4-((dimethyl(oxo)-λ^6-sulfanylidene)amino)cyclohexyl)methyl)amino)-5-nitropyridin-3-yl)sulfonyl)benzamide]	
≤ 1 nM			CCc1ccccc1[C@@H]1CCCN1C1CC2(CCN(c3ccc(C(=O)NS(=O)(=O)c4cnc(NCC5CCC(C)(O)CC5)c([N+](=O)[O-])c4)c(Oc4cnc5[nH]ccc5c4)c3)CC2)C1 (stereo partly drawn) [Example A-8a, (S)-2-((1H-pyrrolo[2,3-b]pyridin-5-yl)oxy)-4-(2-(2-(2-ethylphenyl)pyrrolidin-1-yl)-7-azaspiro[3.5]nonan-7-yl)-N-((6-(((4-hydroxy-4-methylcyclohexyl)methyl)amino)-5-nitropyridin-3-yl)sulfonyl) benzamide]	
≤ 1 nM			CC(C)c1ccccc1[C@@H]1CCCN1C1CC2(CCN(c3ccc(C(=O)NS(=O)(=O)c4cnc(NCC5CCC(C)(O)CC5)c([N+](=O)[O-])c4)c(Oc4cnc5[nH]ccc5c4)c3)CC2)C1 (some centres unmarked) [Example A-6a, (5)-2-((1H-pyrrolo[2,3-b]pyridin-5-yl)oxy)-N-((6-(((4-hydroxy-4-methylcyclohexyl)methyl)amino)-5-nitropyridin-3-yl)sulfonyl)-4-(2-(2-(2-isopropylphenyl)pyrrolidin-1-yl)-7-azaspiro[3.5]nonan-7-yl) benzamide]	
	1 nM	1 nM	CC(C)c1ccccc1[C@@H]1CCCN1C1CC2(CCN(c3ccc(C(=O)NS(=O)(=O)c4cc5c(c([N+](=O)[O-])c4)N[C@@H]([C@H]4CC[C@](C)(O)CC4)CO5)c(Oc4cc5c(F)c[nH]c5nc4OC4CCN(C)CC4)c3)CC2)C1 (single isomer, unassigned) [Example D-286, 2-((3-fluoro-6-((1-methylpiperidin-4-yl)oxy)-1H-pyrrolo[2,3-b]pyridin-5-yl)oxy)-N-(((S)-3-((1r,4S)-4-hydroxy-4-methylcyclohexyl)-5-nitro-3,4-dihydro-2H-benzo[b] [1,4]oxazin-7-yl)sulfonyl)-4-(2-((R or S)-2-(2-isopropylphenyl)pyrrolidin-1-yl)-7-azaspiro[3.5]nonan-7-yl)benzamide]	1 nM
	1 nM	1 nM	CC(C)c1ccccc1[C@@H]1CCCN1C1CC2(CCN(c3ccc(C(=O)NS(=O)(=O)c4cc5c(c([N+](=O)[O-])c4)N[C@@H]([C@H]4CC[C@](C)(O)CC4)CO5)c(Oc4cc5cc[nH]c5nc4OC[C@@H]4COCCN4C)c3)CC2)C1 (single isomer, unassigned) [Example D-135, N-(((S)-3-((1r,4S)-4-hydroxy-4-methylcyclohexyl)-5-nitro-3,4-dihydro-2H-benzo[b][1,4]oxazin-7-yl)sulfonyl)-4-(2-((R or S)-2-(2-isopropylphenyl)pyrrolidin-1-yl)-7-azaspiro[3.5]nonan-7-yl)-2-((6-(((S)-4-methylmorpholin-3-yl)methoxy)-1H-pyrrolo[2,3-b]pyridin-5-yl)oxy)benzamide]	1 nM
	25 nM	6 nM	CCOc1nc2[nH]cc(F)c2cc1Oc1cc(N2CCC3(CC2)CN([C@H]2CCC[C@H]2c2ccccc2C(C)C)C3)ccc1C(=O)NS(=O)(=O)c1cnc(NC[C@H]2CC[C@](C)(O)CC2)c([N+](=O)[O-])c1 (relative stereo) [Example A-153, 2-((6-ethoxy-3-fluoro-1H-pyrrolo[2,3-b]pyridin-5-yl)oxy)-N-((6-(((1r,4r)-4-hydroxy-4-methylcyclohexyl)methyl)amino)-5-nitropyridin-3-yl) sulfonyl)-4-(2-((1S,2S or 1R,2R)-2-(2-isopropylphenyl)cyclo-pentyl)-2,7-diazaspiro[3.5]nonan-7-yl) benzamide]	1 nM
	1 nM	22 nM	COCCOc1nc2[nH]ccc2cc1Oc1cc(N2CCC3(CC2)CC(N2CCC[C@H]2c2ccccc2C(C)C)C3)ccc1C(=O)NS(=O)(=O)c1cc2c(c([N+](=O)[O-])c1)N[C@@H]([C@H]1CC[C@](C)(O)CC1)CO2 (single isomer, unassigned) [Example D-17, N-(((S)-3-((1r,4S)-4-hydroxy-4-methylcyclohexyl)-5-nitro-3,4-dihydro-2H-benzo[b][1,4]oxazin-7-yl)sulfonyl)-4-(2-((R or S)-2-(2-isopropylphenyl)pyrrolidin-1-yl)-7-azaspiro[3.5]nonan-7-yl)-2-((6-(2-methoxyethoxy)-1H-pyrrolo[2,3-b]pyridin-5-yl)oxy) benzamide]	1 nM
	3 nM	8 nM	COCCOc1nc2[nH]cc(F)c2cc1Oc1cc(N2CCC3(CC2)CN([C@H]2CCC[C@H]2c2ccccc2C(C)C)C3)ccc1C(=O)NS(=O)(=O)c1cc2c(c([N+](=O)[O-])c1)N[C@@H]([C@H]1CC[C@](C)(O)CC1)CO2 (single isomer, unassigned) [Example D-95, 2-((3-fluoro-6-(2-methoxyethoxy)-1H-pyrrolo[2,3-b]pyridin-5-yl)oxy)-N-(((S)-3-((1r,4S)-4-hydroxy-4-methylcyclohexyl)-5-nitro-3,4-dihydro-2H-benzo[b][1,4]oxazin-7-yl)sulfonyl)-4-(2-((1S,2S or 1R,2R)-2-(2-isopropylphenyl)cyclopentyl)-2,7-diazaspiro[3.5]nonan-7-yl)benzamide]	1 nM
	3 nM	1 nM	CC(C)c1ccccc1[C@@H]1CCC[C@@H]1N1CC2(CCN(c3ccc(C(=O)NS(=O)(=O)c4cnc(NC[C@H]5CC[C@](C)(O)CC5)c([N+](=O)[O-])c4)c(Oc4cc5c(F)c[nH]c5nc4Cl)c3)CC2)C1 (single isomer, unassigned) [Example A-151, 2-((6-chloro-3-fluoro-1H-pyrrolo[2,3-b]pyridin-5-yl)oxy)-N-((6-((((1r,4r)-4-hydroxy-4-methylcyclohexyl)methyl)amino)-5-nitropyridin-3-yl)sulfonyl)-4-(2-((1S,2S or 1R,2R)-2-(2-isopropylphenyl)cyclo-pentyl)-2,7-diazaspiro[3.5]nonan-7-yl)_ benzamide]	1 nM
	1 nM	14 nM	CC(C)c1ccccc1[C@@H]1CCCN1C1CC2(CCN(c3ccc(C(=O)NS(=O)(=O)c4cc5c(c([N+](=O)[O-])c4)N[C@@H]([C@H]4CC[C@](C)(O)CC4)CO5)c(Oc4cnc5[nH]cc(F)c5c4)c3)CC2)C1 (single isomer, unassigned) [Example D-7, 2-((3-fluoro-1H-pyrrolo[2,3-b]pyridin-5-yl)oxy)-N-(((S)-3-((1r,4S)-4-hydroxy-4-methylcyclohexyl)-5-nitro-3,4-dihydro-2H-benzo[b] [1,4]oxazin-7-yl)sulfonyl)-4-(2-((R or S)-2-(2-isopropylphenyl)pyrrolidin-1-yl)-7-azaspiro[3.5]nonan-7-yl)benzamide]	1 nM
